# Key:
# [1] = target: T1, adenosine deaminase (ADA) (Bos taurus, UniProt P56658); assay: biochemical
# T1 sequence (P56658 2-363): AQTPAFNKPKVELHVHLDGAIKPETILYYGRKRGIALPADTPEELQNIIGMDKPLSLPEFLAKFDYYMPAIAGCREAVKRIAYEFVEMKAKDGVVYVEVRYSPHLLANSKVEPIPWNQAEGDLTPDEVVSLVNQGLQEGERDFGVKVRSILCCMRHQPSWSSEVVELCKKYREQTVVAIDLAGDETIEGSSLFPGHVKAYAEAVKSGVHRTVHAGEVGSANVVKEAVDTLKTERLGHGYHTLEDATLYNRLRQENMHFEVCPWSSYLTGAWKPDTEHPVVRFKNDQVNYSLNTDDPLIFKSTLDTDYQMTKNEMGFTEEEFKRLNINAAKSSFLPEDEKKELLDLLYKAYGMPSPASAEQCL
# [2] = target: T1, adenosine deaminase (ADA); assay: fluorescence assay of tzA to tzI deamination, IC50 with Hill fit; type: biochemical
# [3] = target: T1, adenosine deaminase (ADA); assay: as above; type: biochemical; remark: listed apart in the source
# [4] = target: T1, adenosine deaminase (ADA); assay: stopped-flow fluorescence kinetics of deamination to tzG; type: biochemical
structure (smiles),measurement,setting,value
CCCCCC[C@H]([C@H](C)O)n1cnc2c(N)ncnc21 [EHNA],IC50,[1],0.0232 ± 0.0042 µM
"CNc1cc(Cl)nc2c1ncn2[C@@H]1O[C@H](CO)[C@@H](O)[C@H]1O [compound 8, 5-chloro-7-methylamino-1-deaza-purine riboside]",IC50,[2],21 ± 8 µM
"OC[C@H]1O[C@@H](n2cnc3c(NCc4ccccc4)cc(Cl)nc32)[C@H](O)[C@@H]1O [compound 11, 5-chloro-7-benzylamino-1-deaza-purine riboside]",IC50,[3],220 ± 70 µM
Nc1nc(N)c2nsc([C@@H]3O[C@H](CO)[C@@H](O)[C@H]3O)c2n1 [tz2-AA],stopped-flow fluorescence kinetics of deamination to tzG,[4],the ^tz2-AA HMM curve showed parabolic behaviour with increasing substrate concentration
